Measurements taken from ChEMBL document CHEMBL1138392, “Phenylalanyl-aminocyclophosphamides as model prodrugs for proteolytic activation: synthesis, stability, and stereochemical requirements for enzymatic cleavage” (Bioorg Med Chem Lett, 2007).

Experiments:
[1] = Stability assessed as hydrolysis half life in presence of alpha-chymotrypsin; format: ADME
[2] = Stability in presence of alpha-chymotrypsin at 100 mM after 12 hrs; format: ADME; settings: 100000 µM
[3] = Stability in phosphate buffer assessed as hydrolysis at pH 7.4 after 3 days; format: physicochemical; settings: read-out: Activity

SMILES | t1/2 [1] [h] | Activity [2] | degraded at 72 h [3] [%] | half-life ([1]; alpha-chymotrypsin) [h]
O=C(N[C@@H](Cc1ccccc1)C(=O)N[C@H]1CCOP(=O)(N(CCCl)CCCl)N1)OCc1ccccc1 (stereo in doubt; trans) | 8.9 |  |  | 
O=C(N[C@@H](Cc1ccccc1)C(=O)N[C@H]1CCOP(=O)(N(CCCl)CCCl)N1)OCc1ccccc1 (stereo in doubt; cis) | 0.333 | Active |  | 
N[C@@H](Cc1ccccc1)C(=O)N[C@H]1CCOP(=O)(N(CCCl)CCCl)N1 (some centres undefined) |  | Not Active | < 10 | 
O=C(N[C@@H](Cc1ccccc1)C(=O)N[C@@H]1CCOP(=O)(N(CCCl)CCCl)N1)OCc1ccccc1 (some centres undefined) |  | Active |  | > 12
N[C@@H](Cc1ccccc1)C(=O)N[C@@H]1CCOP(=O)(N(CCCl)CCCl)N1 (some centres undefined) |  | Not Active | < 10 | 
